Source: patent US20120214847A1, “2-[1-PHENYL-5-HYDROXY-4a-SUBSTITUTED-HEXAHYDROCYCLOPENTA[F]INDAZOL-5-YL]ETHYL PHENYL DERIVATIVES AS GLUCOCORTICOID RECEPTOR LIGANDS” (Merck Sharp & Dohme Corp., priority 2009, published 2012)

Molecular target: T1, human GR (Homo sapiens, UniProt P04150)
T1 construct: naturally expresses the human GR; endogenous in cells
T1 sequence (P04150 1-777): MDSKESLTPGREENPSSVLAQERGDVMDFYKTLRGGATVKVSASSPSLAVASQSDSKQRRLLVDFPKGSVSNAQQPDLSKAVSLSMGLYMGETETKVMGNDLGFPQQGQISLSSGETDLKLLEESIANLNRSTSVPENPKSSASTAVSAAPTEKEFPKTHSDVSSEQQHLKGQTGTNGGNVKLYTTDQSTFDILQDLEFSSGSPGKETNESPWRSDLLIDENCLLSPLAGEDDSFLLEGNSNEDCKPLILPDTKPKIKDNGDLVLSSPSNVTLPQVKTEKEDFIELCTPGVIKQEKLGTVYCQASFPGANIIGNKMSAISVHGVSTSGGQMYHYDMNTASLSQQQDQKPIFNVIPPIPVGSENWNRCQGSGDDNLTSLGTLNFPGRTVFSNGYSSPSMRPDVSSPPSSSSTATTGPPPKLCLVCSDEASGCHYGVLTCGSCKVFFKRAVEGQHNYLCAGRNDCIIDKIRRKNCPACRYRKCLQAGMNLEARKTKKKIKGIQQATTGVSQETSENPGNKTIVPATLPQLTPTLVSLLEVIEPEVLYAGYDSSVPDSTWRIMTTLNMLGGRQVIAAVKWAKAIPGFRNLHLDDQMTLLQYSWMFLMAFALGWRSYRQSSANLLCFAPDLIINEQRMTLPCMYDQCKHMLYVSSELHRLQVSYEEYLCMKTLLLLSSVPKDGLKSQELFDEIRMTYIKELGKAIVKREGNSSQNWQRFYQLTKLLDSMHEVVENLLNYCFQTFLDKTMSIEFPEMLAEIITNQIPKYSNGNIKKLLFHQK
Test: Transrepression assay (GITAR), TNFα-β-lactamase reporter in U937 cells
Type: cell-based
Conditions: for EC50 / Transrepression U937 Cells GITAR Emax (%): U937 cells; for EC50: IP = inflection point; for Emax: U-937, U937 cells; for Emax / Transrepression U937 Cells GITAR Emax (%): activity repressed by 100 nM dexamethasone alone set as 100%
Summary of the method: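 U937 cells stably carrying TNFα promoter–β-lactamase, endogenous GR, preincubated with compound 30–45 min at 37° C., then stimulated with 5 ng/ml PMA plus 100 ng/ml LPS for ~18 h. CCF2-AM read-out; repression by 100 nM dexamethasone set as 100%.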

| Compound | EC50 [nM] | Emax [%] | Transrepression U937 Cells GITAR Emax (%) |
| --- | --- | --- | --- |
| CC[C@]12Cc3cnn(-c4ccc(F)cc4)c3C=C1CC[C@@]2(O)CCc1nccc(OC)c1C(F)C(N)=O (stereo partly drawn) [Example 65, 2-(2-{2-[(4aS,5R)-4a-Ethyl-1-(4-fluorophenyl)-5-hydroxy-1,4,4a,5,6,7-hexahydrocyclopenta[f]indazol-5-yl]ethyl}-4-methoxypyridin-3-yl)-2-fluoroacetamide] | 195 | 63 | – |
| CC[C@]12Cc3cnn(-c4cccc(F)c4)c3C=C1CC[C@@]2(O)CCc1ccccc1C(N)=O [Example 11, 2-{2-[(4aS,5R)-4a-Ethyl-1-(3-fluorophenyl)-5-hydroxy-1,4,4a,5,6,7-hexahydrocyclopenta[f]indazol-5-yl]ethyl}benzamide] | 80 | 82 | – |
| CC[C@]12Cc3cnn(-c4ccc(F)cc4)c3C=C1CC[C@@]2(O)CCc1nccc(C2CC2)c1C(=O)OC [Example 41, Methyl 4-cyclopropyl-2-{2-[(4aS,5R)-4a-ethyl-1-(4-fluorophenyl)-5-hydroxy-1,4,4a,5,6,7-hexahydrocyclopenta[f]indazol-5-yl]ethyl}pyridine-3-carboxylate] | 262 | 79 | – |
| CC[C@]12Cc3cnn(-c4ccc(F)cc4)c3C=C1CC[C@@]2(O)CC(O)c1ccc(F)cn1 (single isomer, unassigned) [Example 69b] | 94 | – | 80 |
| NC(=O)C(O)c1ccccc1CC[C@]1(O)CCC2=Cc3c(cnn3-c3ccc(F)cc3)C[C@@]21C1CC1 (single isomer, unassigned) [Example 3b] | 68 | 85 | – |
| NC(=O)c1ccccc1CC[C@]1(O)CCC2=Cc3c(cnn3-c3ccccc3)C[C@@]21C1CC1 [Example 29, 2-{2-[(4aR,5R)-4a-Cyclopropyl-5-hydroxy-1-phenyl-1,4,4a,5,6,7-hexahydrocyclopenta[f]indazol-5-yl]ethyl}benzamide] | 47 | 69 | – |
| CC[C@]12Cc3cnn(-c4ccccc4)c3C=C1CC[C@@]2(O)CC(O)c1ccccn1 (single isomer, unassigned) [Example 67b] | 277 | – | 44 |
